# Legend:
# Test in all cases: relative viability (nuclei count vs DMSO), 5 days (fraction); higher = more cells survive
# Imatinib + Crizotinib = compound: Cc1ccc(NC(=O)c2ccc(CN3CCN(C)CC3)cc2)cc1Nc1nccc(-c2cccnc2)n1 [Imatinib] + C[C@@H](Oc1cc(-c2cnn(C3CCNCC3)c2)cnc1N)c1c(Cl)ccc(F)c1Cl [Crizotinib] (partner 1 µM)
# Method in brief: (§1)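 Relative viability is defined as nuclei in treated wells over nuclei in vehicle wells. Duplicate plates were run and medians reported. Lung cancer cell lines in 1536-well plates were dosed by pin tool one day after seeding, with one drug or with a fixed anchor-drug dose plus five library-drug doses (not always all listed) in √10 steps, and nuclei were counted after 5 days.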
# Imatinib + Foretinib = compound: Cc1ccc(NC(=O)c2ccc(CN3CCN(C)CC3)cc2)cc1Nc1nccc(-c2cccnc2)n1 [Imatinib] + COc1cc2c(Oc3ccc(NC(=O)C4(C(=O)Nc5ccc(F)cc5)CC4)cc3F)ccnc2cc1OCCCN1CCOCC1 [Foretinib] (partner 0.25 µM)
# Method in brief: as §1
# Imatinib + Phenformin = compound: Cc1ccc(NC(=O)c2ccc(CN3CCN(C)CC3)cc2)cc1Nc1nccc(-c2cccnc2)n1 [Imatinib] + N=C(N)NC(=N)NCCc1ccccc1 [Phenformin] (partner 250 µM)
# Method in brief: as §1
# Imatinib + Vorinostat = compound: Cc1ccc(NC(=O)c2ccc(CN3CCN(C)CC3)cc2)cc1Nc1nccc(-c2cccnc2)n1 [Imatinib] + O=C(CCCCCCC(=O)Nc1ccccc1)NO [Vorinostat] (partner 1 µM)
# Method in brief: as §1
cell line,measurement,setting,value
NCI-H1650,relative viability,Imatinib + Crizotinib; first compound 0.02 µM,1.04
same,relative viability,Imatinib + Crizotinib; first compound 0.06325 µM,1.06
same,relative viability,Imatinib + Crizotinib; first compound 0.2 µM,1.2
same,relative viability,Imatinib + Crizotinib; first compound 0.6325 µM,0.904
same,relative viability,Imatinib + Crizotinib; first compound 2 µM,1.11
same,relative viability,Imatinib + Foretinib; first compound 0.02 µM,0.962
same,relative viability,Imatinib + Foretinib; first compound 0.2 µM,1.01
same,relative viability,Imatinib + Foretinib; first compound 0.6325 µM,1.2
same,relative viability,Imatinib + Foretinib; first compound 2 µM,1.06
same,relative viability,Imatinib + Phenformin; first compound 0.02 µM,0.499
same,relative viability,Imatinib + Phenformin; first compound 0.06325 µM,0.473
same,relative viability,Imatinib + Phenformin; first compound 0.2 µM,0.329
same,relative viability,Imatinib + Phenformin; first compound 0.6325 µM,0.388
same,relative viability,Imatinib + Phenformin; first compound 2 µM,0.385
same,relative viability,Imatinib + Vorinostat; first compound 0.02 µM,0.605
same,relative viability,Imatinib + Vorinostat; first compound 0.06325 µM,0.527
same,relative viability,Imatinib + Vorinostat; first compound 0.2 µM,0.477
same,relative viability,Imatinib + Vorinostat; first compound 0.6325 µM,0.441
same,relative viability,Imatinib + Vorinostat; first compound 2 µM,0.452
NCI-H2085,relative viability,Imatinib + Crizotinib; first compound 0.02 µM,0.826
same,relative viability,Imatinib + Crizotinib; first compound 0.06325 µM,0.891
same,relative viability,Imatinib + Crizotinib; first compound 0.2 µM,0.903
same,relative viability,Imatinib + Crizotinib; first compound 0.6325 µM,0.839
same,relative viability,Imatinib + Crizotinib; first compound 2 µM,0.841
same,relative viability,Imatinib + Foretinib; first compound 0.06325 µM,0.941
same,relative viability,Imatinib + Foretinib; first compound 0.2 µM,1.02
same,relative viability,Imatinib + Foretinib; first compound 0.6325 µM,1.01
same,relative viability,Imatinib + Foretinib; first compound 2 µM,0.972
same,relative viability,Imatinib + Phenformin; first compound 0.02 µM,0.867
same,relative viability,Imatinib + Phenformin; first compound 0.06325 µM,0.694
same,relative viability,Imatinib + Phenformin; first compound 0.2 µM,0.748
same,relative viability,Imatinib + Phenformin; first compound 0.6325 µM,0.752
same,relative viability,Imatinib + Phenformin; first compound 2 µM,0.704
same,relative viability,Imatinib + Vorinostat; first compound 0.02 µM,0.755
same,relative viability,Imatinib + Vorinostat; first compound 0.06325 µM,0.683
same,relative viability,Imatinib + Vorinostat; first compound 0.2 µM,0.772
same,relative viability,Imatinib + Vorinostat; first compound 0.6325 µM,0.743
same,relative viability,Imatinib + Vorinostat; first compound 2 µM,0.768
NCI-H1793,relative viability,Imatinib + Foretinib; first compound 0.02 µM,0.827
same,relative viability,Imatinib + Foretinib; first compound 0.2 µM,0.919
same,relative viability,Imatinib + Foretinib; first compound 0.6325 µM,0.682
same,relative viability,Imatinib + Foretinib; first compound 2 µM,0.715
same,relative viability,Imatinib + Phenformin; first compound 0.02 µM,0.388
same,relative viability,Imatinib + Phenformin; first compound 0.2 µM,0.375
same,relative viability,Imatinib + Phenformin; first compound 0.6325 µM,0.284
same,relative viability,Imatinib + Phenformin; first compound 2 µM,0.257
same,relative viability,Imatinib + Vorinostat; first compound 0.02 µM,0.703
same,relative viability,Imatinib + Vorinostat; first compound 0.2 µM,0.94
same,relative viability,Imatinib + Vorinostat; first compound 0.6325 µM,0.716
same,relative viability,Imatinib + Vorinostat; first compound 2 µM,0.565
RERF-LC-KJ,relative viability,Imatinib + Crizotinib; first compound 0.02 µM,0.867
same,relative viability,Imatinib + Crizotinib; first compound 0.06325 µM,0.885
same,relative viability,Imatinib + Crizotinib; first compound 0.2 µM,0.51
same,relative viability,Imatinib + Crizotinib; first compound 0.6325 µM,0.855
same,relative viability,Imatinib + Crizotinib; first compound 2 µM,0.826
same,relative viability,Imatinib + Foretinib; first compound 0.02 µM,0.909
same,relative viability,Imatinib + Foretinib; first compound 0.06325 µM,0.757
same,relative viability,Imatinib + Foretinib; first compound 0.6325 µM,0.794
same,relative viability,Imatinib + Foretinib; first compound 2 µM,0.834
same,relative viability,Imatinib + Phenformin; first compound 0.02 µM,0.49
same,relative viability,Imatinib + Phenformin; first compound 0.06325 µM,0.472
same,relative viability,Imatinib + Phenformin; first compound 0.2 µM,0.432
same,relative viability,Imatinib + Phenformin; first compound 0.6325 µM,0.407
same,relative viability,Imatinib + Phenformin; first compound 2 µM,0.428
same,relative viability,Imatinib + Vorinostat; first compound 0.02 µM,0.698
same,relative viability,Imatinib + Vorinostat; first compound 0.06325 µM,0.535
same,relative viability,Imatinib + Vorinostat; first compound 0.6325 µM,0.662
same,relative viability,Imatinib + Vorinostat; first compound 2 µM,0.683
HCC-78,relative viability,Imatinib + Crizotinib; first compound 0.02 µM,0.334
same,relative viability,Imatinib + Crizotinib; first compound 0.06325 µM,0.344
same,relative viability,Imatinib + Crizotinib; first compound 0.2 µM,0.36
same,relative viability,Imatinib + Crizotinib; first compound 0.6325 µM,0.314
same,relative viability,Imatinib + Crizotinib; first compound 2 µM,0.322
same,relative viability,Imatinib + Foretinib; first compound 0.02 µM,0.654
same,relative viability,Imatinib + Foretinib; first compound 0.06325 µM,0.577
same,relative viability,Imatinib + Foretinib; first compound 0.2 µM,0.534
same,relative viability,Imatinib + Foretinib; first compound 0.6325 µM,0.44
same,relative viability,Imatinib + Foretinib; first compound 2 µM,0.56
same,relative viability,Imatinib + Phenformin; first compound 0.02 µM,0.695
same,relative viability,Imatinib + Phenformin; first compound 0.06325 µM,0.674
same,relative viability,Imatinib + Phenformin; first compound 0.2 µM,0.719
same,relative viability,Imatinib + Phenformin; first compound 0.6325 µM,0.591
same,relative viability,Imatinib + Phenformin; first compound 2 µM,0.641
same,relative viability,Imatinib + Vorinostat; first compound 0.02 µM,0.417
same,relative viability,Imatinib + Vorinostat; first compound 0.06325 µM,0.344
same,relative viability,Imatinib + Vorinostat; first compound 0.2 µM,0.383
same,relative viability,Imatinib + Vorinostat; first compound 0.6325 µM,0.447
same,relative viability,Imatinib + Vorinostat; first compound 2 µM,0.492
LCLC-103H,relative viability,Imatinib + Crizotinib; first compound 0.02 µM,1.16
same,relative viability,Imatinib + Crizotinib; first compound 0.6325 µM,0.937
same,relative viability,Imatinib + Foretinib; first compound 0.06325 µM,0.744
same,relative viability,Imatinib + Foretinib; first compound 0.2 µM,0.565
same,relative viability,Imatinib + Foretinib; first compound 0.6325 µM,0.679
same,relative viability,Imatinib + Foretinib; first compound 2 µM,0.869
same,relative viability,Imatinib + Phenformin; first compound 0.02 µM,0.342
same,relative viability,Imatinib + Phenformin; first compound 0.06325 µM,0.325
same,relative viability,Imatinib + Phenformin; first compound 0.2 µM,0.347
same,relative viability,Imatinib + Phenformin; first compound 0.6325 µM,0.316
same,relative viability,Imatinib + Phenformin; first compound 2 µM,0.255
same,relative viability,Imatinib + Vorinostat; first compound 0.02 µM,0.768
same,relative viability,Imatinib + Vorinostat; first compound 0.06325 µM,0.584
same,relative viability,Imatinib + Vorinostat; first compound 0.2 µM,0.814
same,relative viability,Imatinib + Vorinostat; first compound 0.6325 µM,0.766
same,relative viability,Imatinib + Vorinostat; first compound 2 µM,0.779
NCI-H1792,relative viability,Imatinib + Crizotinib; first compound 0.02 µM,1.4
same,relative viability,Imatinib + Crizotinib; first compound 0.2 µM,0.931
same,relative viability,Imatinib + Crizotinib; first compound 0.6325 µM,0.92
same,relative viability,Imatinib + Crizotinib; first compound 2 µM,0.946
same,relative viability,Imatinib + Phenformin; first compound 0.02 µM,0.262
same,relative viability,Imatinib + Phenformin; first compound 0.06325 µM,0.237
same,relative viability,Imatinib + Phenformin; first compound 0.2 µM,0.233
same,relative viability,Imatinib + Phenformin; first compound 0.6325 µM,0.235
same,relative viability,Imatinib + Phenformin; first compound 2 µM,0.35
NCI-H358,relative viability,Imatinib + Crizotinib; first compound 0.02 µM,0.616
same,relative viability,Imatinib + Crizotinib; first compound 0.2 µM,0.571
same,relative viability,Imatinib + Crizotinib; first compound 0.6325 µM,0.555
same,relative viability,Imatinib + Crizotinib; first compound 2 µM,0.616
same,relative viability,Imatinib + Foretinib; first compound 0.02 µM,0.685
same,relative viability,Imatinib + Foretinib; first compound 0.06325 µM,0.519
same,relative viability,Imatinib + Foretinib; first compound 0.2 µM,0.726
same,relative viability,Imatinib + Foretinib; first compound 0.6325 µM,0.619
same,relative viability,Imatinib + Foretinib; first compound 2 µM,0.648
same,relative viability,Imatinib + Phenformin; first compound 0.02 µM,0.317
same,relative viability,Imatinib + Phenformin; first compound 0.06325 µM,0.349
same,relative viability,Imatinib + Phenformin; first compound 0.2 µM,0.418
same,relative viability,Imatinib + Phenformin; first compound 0.6325 µM,0.292
same,relative viability,Imatinib + Phenformin; first compound 2 µM,0.335
same,relative viability,Imatinib + Vorinostat; first compound 0.02 µM,0.863
same,relative viability,Imatinib + Vorinostat; first compound 0.06325 µM,0.83
same,relative viability,Imatinib + Vorinostat; first compound 0.2 µM,0.642
same,relative viability,Imatinib + Vorinostat; first compound 0.6325 µM,0.692
same,relative viability,Imatinib + Vorinostat; first compound 2 µM,0.729

# — the supplement of paper PMC10307832
